Data on two compounds can be found in patent US5554637A, “Use of leflunomide for inhibiting interleukin 1 alpha” (priority 1993, dated 1996).

SMILES strings stand for the structures. Entries after “also recorded” stand apart in the source; their conditions may differ.

The subject of one data set is IL1alpha. The data set is described as follows: IL1alpha synthesis and liberation in lipopolysaccharide-stimulated mononuclear cells from human blood (sandwich enzyme immuno test). The format is cell-based. To be noted: for activity at 10 µM: concentration 0.01 mmol/l; for activity at 100 µM: concentration 0.1 mmol/l; for effect on the IL1alpha level: summary in words of Table 1. How it is done: The mononuclear cells from freshly isolated human citrate blood were enriched in accordance with known standard procedures (see Tiku et al., J. Immunol. 136/10 (1986) 3677):
10 ml of freshly prepared human citrate blood were carefully underlaid with 15 ml of Lynnphoprep^(R) (Molter GmbH, Heidelberg) and then centrifuged at 400 ×g for 40 min. at 20° C. The cell fraction which was visible as a white ring at the phase boundary was withdrawn with the aid of a syringe, diluted 1:1 (v/v) with PM-16 buffer (from Serva Feinbiochemica GmbH & Co. KG, Heidelberg) and then centrifuged, as above, for 10 min. The supernatant was washed with 10 ml of RPMI 1640 buffer (Gibco, Berlin) to which 300 mg/1 L-glutamine had previously been added. The washed cell fraction was taken up in 1 ml of RPMI 1640 to which 300 mg/1 L-glutamine, 25 mmol/1 HEPES (Gibco, Berlin), […] streptomycin and […] penicillin had previously been added. Using a cell counter (type IT, from Coulter Diagnostics, Krefeld), the cell suspension, which is composed of about 90% lymphocytes and 10% monocytes, was adjusted to about 5 million cells/mi. Cell viability was monitored before and after the inhibition experiments using the known lactate dehydrogenase method. In this case, no change in viability was observed.
The synthesis and liberation of cellular IL1alpha was induced by adding a solution of 500 ng of lipopolysaccharide (Salmonella abortus equi, Sigma GmbH, Deisenhofen) in 0.01 ml of dimethyl sulfoxide/water (1:10, v/v) to 0.48 ml of the above-described cell fraction. At the same time, a solution of leflunomide or leflunomide metabolite in 0.01 ml of dimethylsulfoxide (for the final concentration in each case, see Tab. 1) was added to the cell fraction and the mixture was left at 37° C. for 20 h in a commercially available incubator. After cooling down to 0° C., the samples were centrifuged for 1 min. in a bench centrifuge and in each case 0.025 ml aliquots of the supernatant were examined for their IL1alpha content using a "sandwich" enzyme immuno test kit (from Biermann GmbH, Bad Nauheim) in accordance with the manufacturer's instructions. The control values were determined without the addition of leflunomide or its metabolites and set at 100%. In particular, any possible influence of dimethyl sulfoxide on the IL1alpha level was excluded by appropriate comparative measurements.

The nature of data set [1]: metabolism of leflunomide under the conditions of the cell experiment (HPLC). The format is in vitro ADME, human. To be noted: human, mononuclear cells; mononuclear cell fraction, incubation conditions of Example 1, HPLC.
A further data set relates to mononuclear cells. The description is as above. The format is in vitro ADME, human. Conditions: in words; isolated human mononuclear cells.
The test system of a further data set is cytokines. Put plainly: synthesis and liberation of cytokines from human blood cells. To be noted: in words. The format is cell-based. How it is done:
The cell fraction which was visible as a white ring at the phase boundary was withdrawn with the aid of a syringe, diluted 1:1 (v/v) with PM-16 buffer (from Serva Feinbiochemica GmbH & Co. KG, Heidelberg) and then centrifuged, as above, for 10 min. […] Using a cell counter (type IT, from Coulter Diagnostics, Krefeld), the cell suspension, which is composed of about 90% lymphocytes and 10% monocytes, was adjusted to about 5 million cells/mi. Cell viability was monitored before and after the inhibition experiments using the known lactate dehydrogenase method.
At the same time, a solution of leflunomide or leflunomide metabolite in 0.01 ml of dimethylsulfoxide (for the final concentration in each case, see Tab. 1) was added to the cell fraction and the mixture was left at 37° C. for 20 h in a commercially available incubator. […] The control values were determined without the addition of leflunomide or its metabolites and set at 100%.

Where [2] appears, read: Homo sapiens, control without substance = 100%, LPS 500 ng, 37° C., 20 h, read-out: IL1alpha in the supernatant, % +/- standard deviation.

Broadly, the half-life is the time needed for the level to fall by half in the phase considered. Higher therefore signals slow loss.

In the case of `Cc1oncc1C(=O)Nc1ccc(C(F)(F)F)cc1` [Leflunomide, N-(4-trifluoromethylphenyl)-5-methylisoxazole-4-carboxamide], the activity at 0.1 µM in the data set on IL1alpha (Homo sapiens, concentration 0.0001 mmol/l, control without substance = 100%, LPS 500 ng, 37° C., 20 h, read-out: IL1alpha in the supernatant, % +/- standard deviation) came to 83 ± 16%. Also, the activity at 5 µM in the data set on IL1alpha (Homo sapiens, concentration 0.005 mmol/l, control without substance = 100%, LPS 500 ng, 37° C., 20 h, read-out: IL1alpha in the supernatant, % +/- standard deviation) is 62%. Also, in the data set with IL1alpha (setting [2]), the activity at 10 µM was 54 ± 5% and the activity at 100 µM is 22 ± 5%. Further, the activity at 50 µM with IL1alpha (Homo sapiens, concentration 0.05 mmol/l, control without substance = 100%, LPS 500 ng, 37° C., 20 h, read-out: IL1alpha in the supernatant, % +/- standard deviation) came out at 22 ± 2%. In addition, the “effect on the IL1alpha level” value in the data set with IL1alpha was “clearly lowered”. Besides, the half-life in data set [1] is ~10 h. In the data set on mononuclear cells, the “metabolism of leflunomide under the experimental conditions” value was “did not, to any appreciable extent, metabolize the leflunomide to its metabolites; also recorded: metabolized only very slowly; also recorded: no appreciable metabolism”. Moreover, in the data set on cytokines, the “effect on the synthesis and liberation of cytokines from human blood cells” value is reported as “strong inhibitory effect”.
Turning to `C/C(O)=C(\C#N)C(=O)Nc1ccc(C(F)(F)F)cc1` [Leflunomide metabolite, N-(4-trifluoromethylphenyl)-2-cyano-3-hydroxycrotonamide], in the data set with IL1alpha (setting [2]), the activity at 10 µM stood at 100 ± 5% and the activity at 100 µM came out at 98 ± 7%. Besides, the “effect on the IL1alpha level” value with IL1alpha was “practically no effect on the IL1alpha level”. For the same compound, in the data set on cytokines, the “effect on the synthesis and liberation of cytokines from human blood cells” value is listed as “does not exhibit this advantageous effect”.
